The values that follow come from US12246076B2, “Radiolabeled compounds for in vivo imaging of gastrin-releasing peptide receptor (GRPR) and treatment of GRPR-related disorders” (PROVINCIAL HEALTH SERVICES AUTHORITY, priority 2022, dated 2025).

The Ki is the dissociation constant of the complex between target and ligand, obtained from inhibition or displacement. By tissue uptake is commonly meant the percentage of the injected dose found per gram of tissue.

One data set addresses T1, GRPR (Homo sapiens, UniProt P30550).
T1 construct: endogenous in cells; host or cells: PC-3 prostate cancer cells
Description: In vitro competition binding assay, displacement of [^125I-Tyr^4]bombesin on GRPR-expressing PC-3 cells. The following applies: n = 2-3, read-out: Binding affinities Ki Mean. The procedure:
PC-3 cells were seeded at 2×10^5 cells/well in 24-well poly-D-lysine plates 24-48 hours prior to the experiment. The growth medium was replaced by 400 μL of reaction medium (RPMI 1640 containing 2 mg/mL BSA, 4.8 mg/mL HEPES, 1 U/mL penicillin G and 1 μg/mL streptomycin). Cells were incubated for 30-60 min at 37° C. […] The cells were incubated with moderate agitation for 1 h at 27° C., washed twice with ice-cold PBS, harvested by trypsinization, and measured for radioactivity on the gamma counter. Data were analyzed using nonlinear regression (one binding site model for competition assay) with GraphPad Prism 8.
In vitro competition binding assays were performed according to the procedure outlined in Example 1.

A further data set is described as follows: in vivo. The following applies: male, NRG, mouse, iv, total radioactivity.
The nature of data set [1]: Ex vivo biodistribution in PC-3 tumor-bearing mice. The following applies: male, NRG, mouse, iv, total radioactivity, 1 h post-injection, mice bearing PC-3 tumor xenografts, n = 4.
Description: (§1) All imaging and biodistribution studies were performed using male NOD.Cg-Rag1^tm1MoM II2rg^tm1WI/SzJ (NRG) mice and conducted according to the guidelines established by the Canadian Council on Animal Care and approved by Animal Ethics Committee of the University of British Columbia. For tumor inoculations, mice were anesthetized by inhalation with 2% isoflurane in oxygen and implanted subcutaneously with 5×10^6 PC-3 cells below the left shoulder. Imaging and biodistribution studies were performed only after tumors grew to 5-8 mm in diameter.
(§2) For PET/CT imaging studies, ˜3-4 MBq of the ^68Ga-labeled tracer was injected through the tail vein. Mice were allowed to recover and roam freely in the cages after injecting the tracer. At 45 min post-injection (p.i.), mice were sedated again and positioned on the scanner. First, a 10 min CT scan was conducted for localization and attenuation correction for reconstruction of PET images, before a 10 min PET image was acquired. Heating pads were used during the entire procedure to keep the mice warm. For ex vivo biodistribution studies, mice were injected with ˜1.5-3 MBq of the ^68Ga-labeled tracer. At 1 h p.i., mice were euthanized, blood was drawn from heart, and organs/tissues of interest were collected, rinsed with PBS, blotted dry, weighed, and counted using an automated gamma counter. The uptake in each organ/tissue was normalized to the injected dose and expressed as the percentage of the injected dose per gram of tissue (% ID/g).
(§3) All imaging and biodistribution studies were performed using male NOD.Cg-Rag1tm1Mom II2rgtm1WjI/SzJ (NRG) mice and conducted according to the guidelines established by the Canadian Council on Animal Care and approved by Animal Ethics Committee of the University of British Columbia. For tumor inoculations, mice were anesthetized by inhalation with 2% isoflurane in oxygen and implanted subcutaneously with 5×10^6 PC-3 cells below the left shoulder. Imaging and biodistribution studies were performed only after tumors grew to 5-8 mm in diameter.
(§4) For PET/CT imaging studies, ˜5 MBq of the ^68Ga-labeled tracer was injected through the tail vein. Mice were allowed to recover and roam freely in the cages after injecting the tracer. At 45 min post-injection (p.i.), mice were sedated again and positioned on the scanner. First, a 10 min CT scan was conducted for localization and attenuation correction for reconstruction of PET images, before a 10 min PET image was acquired. Heating pads were used during the entire procedure to keep the mice warm. For ex vivo biodistribution studies, mice were injected with ˜3 MBq of the 68Ga-labeled tracer. At 1 h p.i., mice were euthanized, blood was drawn from heart, and organs/tissues of interest were collected, rinsed with PBS, blotted dry, weighed, and counted using an automated gamma counter.
The mark [2] stands for this setting: Biodistribution Large Intestine Mean.
[3] abbreviates: Biodistribution Small Intestine Mean.
The mark [4] stands for this setting: PC-3 tumor, Biodistribution PC3 tumor Mean.
The mark [5] stands for this setting: seminal, Biodistribution Seminal Mean.

Numbered stars: 1 amine (or outer) side, 2 acyl side, 3 side chain; on linkers, the order of the positions; unused ones are H or OH. Square brackets hold non-standard residues; d marks the D form. Peptide text beside a SMILES is read from it. * marks the point of attachment. DOTA = O=C(O)CN1CCN(CC(=O)O)CCN(CC(=O)*)CCN(CC(=O)O)CC1; Leuψ(CH2N)ThzNH2 = CC(C)C[C@@H](CN1CSC[C@H]1C(N)=O)N*; NMeH = CN[C@@H](Cc1c[nH]cn1)C(=O)O; X1 = O=C(CN1CCC(N[*:1])CC1)[*:2]; Tle = CC(C)(C)[C@H](N)C(=O)O; Thz = O=C(O)[C@@H]1CSCN1

T1 sequence (P30550 whole entry): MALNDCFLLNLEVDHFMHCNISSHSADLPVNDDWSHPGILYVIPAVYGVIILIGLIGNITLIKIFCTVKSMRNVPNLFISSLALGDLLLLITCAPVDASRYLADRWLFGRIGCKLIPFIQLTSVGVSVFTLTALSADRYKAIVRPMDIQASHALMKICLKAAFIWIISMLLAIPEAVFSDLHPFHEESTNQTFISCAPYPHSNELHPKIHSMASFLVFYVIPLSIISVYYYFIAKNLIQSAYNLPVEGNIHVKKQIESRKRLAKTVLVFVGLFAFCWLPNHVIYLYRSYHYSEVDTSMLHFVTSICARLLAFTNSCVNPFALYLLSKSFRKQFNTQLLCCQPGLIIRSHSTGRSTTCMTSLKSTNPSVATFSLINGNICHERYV
Description for in vivo: as §1, §2, §3, §4

Turning to `CC(C)C[C@H](NC(=O)[C@H](Cc1cnc[nH]1)NC(=O)CNC(=O)[C@@H](NC(=O)[C@H](C)NC(=O)[C@H](Cc1c[nH]c2ccccc12)NC(=O)[C@H](CCC(N)=O)NC(=O)[C@H](N)Cc1ccccc1)C(C)(C)C)C(=O)N1CSC[C@H]1C(N)=O` [LW01080, D-Phe-Gln-Trp-Ala-Tle-Gly-His-Leu-Thz-NH2], the Ki at GRPR is 3.56 nM.
With `CC(C)C[C@H](NC(=O)[C@H](Cc1cnc[nH]1)N(C)C(=O)CNC(=O)[C@@H](NC(=O)[C@H](C)NC(=O)[C@H](Cc1c[nH]c2ccccc12)NC(=O)[C@H](CCC(N)=O)NC(=O)[C@@H](Cc1ccccc1)NC(=O)CN1CCC(NC(=O)CN2CCN(CC(=O)O)CCN(CC(=O)O)CCN(CC(=O)O)CC2)CC1)C(C)(C)C)C(=O)N1CSC[C@H]1C(N)=O` [^68Ga-LW01110, metal not drawn], the tissue uptake at 1 h in “in vivo” (Biodistribution Adrenal Mean) came to 1.64 %ID/g; in the data set “in vivo” (Biodistribution Blood Mean) it was 0.69 %ID/g; in the data set “in vivo” (Biodistribution Bone Mean), 0.12 %ID/g; in “in vivo” (Biodistribution Brain Mean), 0.03 %ID/g; in “in vivo” (Biodistribution Fat Mean), 0.09 %ID/g; in the data set “in vivo” (Biodistribution Heart Mean), 0.23 %ID/g. Further, the tissue uptake at 1 h in the data set “in vivo” (Biodistribution Kidneys Mean) was determined as 3.26 %ID/g; in the data set “in vivo” (setting [2]) it was 1.27 %ID/g; in “in vivo” (Biodistribution Liver Mean) it was 0.41 %ID/g; in the data set “in vivo” (Biodistribution Lungs Mean), 0.59 %ID/g; in “in vivo” (Biodistribution Muscle Mean) it was 0.14 %ID/g; in “in vivo” (Biodistribution Pancreas Mean), 8.99 %ID/g. Besides, the tissue uptake at 1 h in the data set “in vivo” (setting [3]) came out at 2.11 %ID/g; in the data set “in vivo” (Biodistribution Spleen Mean) it was 0.29 %ID/g; in “in vivo” (Biodistribution Stomach Mean), 0.94 %ID/g; in the data set “in vivo” (Biodistribution Testes Mean) it was 0.16 %ID/g; in data set [1] (setting [4]), 16.6 %ID/g; in data set [1] (setting [5]), 0.1 %ID/g.
For `CC(C)C[C@H](NC(=O)[C@H](Cc1c[nH]cn1)NC(=O)CNC(=O)[C@@H](NC(=O)[C@H](C)NC(=O)[C@H](Cc1csc2ccccc12)NC(=O)[C@H](CCC(N)=O)NC(=O)[C@H](N)Cc1ccccc1)C(C)C)C(=O)N1CSC[C@H]1C(N)=O` [LW02015] (HELM PEPTIDE1{[dF].Q.[O=C([C@H](Cc1csc2ccccc12)N[*:1])[*:2]].A.V.G.H.L.[O=C([C@@H]1CSCN1[*:1])[*:2]].[am]}$$$$V2.0), the Ki on GRPR came to 53.1 nM.
Turning to `CC(C)C[C@H](NC(=O)[C@H](Cc1c[nH]cn1)NC(=O)CNC(=O)[C@@H](NC(=O)[C@H](C)NC(=O)[C@H](Cc1c[nH]c2ccccc12)NC(=O)[C@H](CCC(N)=O)NC(=O)[C@H](N)Cc1ccccc1)C1CC1)C(=O)N1CSC[C@H]1C(N)=O` [LW02016], the Ki at GRPR came to 202 nM.
Same read-out and setting: the figure for `CC(C)C[C@@H](CN1CSC[C@H]1C(N)=O)NC(=O)[C@H](Cc1c[nH]cn1)NC(=O)CNC(=O)[C@@H](NC(=O)[C@H](C)NC(=O)[C@H](Cc1c[nH]c2ccccc12)NC(=O)[C@H](CCC(N)=O)NC(=O)[C@H]1Cc2c([nH]c3ccccc23)CN1C(=O)CN1CCC(NC(=O)CN2CCN(CC(=O)O)CCN(CC(=O)O)CCN(CC(=O)O)CC2)CC1)C(C)C` [LW01061, DOTA-Pip-D-Tpi-Gln-Trp-Ala-Val-Gly-His-Leu-ψ-Thz-NH2] is above 400 nM.
Still for that read-out and setting: next, `CC(C)C[C@H](NC(=O)[C@H](Cc1c[nH]cn1)NC(=O)CNC(=O)[C@@H](NC(=O)[C@H](C)NC(=O)[C@H](Cc1c[nH]c2cc(F)ccc12)NC(=O)[C@H](CCC(N)=O)NC(=O)[C@H](N)Cc1ccccc1)C(C)C)C(=O)N1CSC[C@H]1C(N)=O` [LW01175]: 46.9 nM; `CC(C)C[C@H](NC(=O)[C@H](Cc1c[nH]cn1)NC(=O)CNC(=O)[C@@H](NC(=O)[C@H](C)NC(=O)[C@H](Cc1c[nH]c2ncccc12)NC(=O)[C@H](CCC(N)=O)NC(=O)[C@H](N)Cc1ccccc1)C(C)C)C(=O)N1CSC[C@H]1C(N)=O` [LW02013]: 166 nM.
For `CC(C)C[C@H](NC(=O)[C@H](Cc1cnc[nH]1)N(C)C(=O)CNC(=O)[C@@H](NC(=O)[C@H](C)NC(=O)[C@H](Cc1c[nH]c2ccccc12)NC(=O)[C@H](Cc1c[nH]cn1)NC(=O)[C@@H](Cc1ccccc1)NC(=O)CN1CCC(NC(=O)CN2CCN(CC(=O)O)CCN(CC(=O)O)CCN(CC(=O)O)CC2)CC1)C(C)(C)C)C(=O)N1CSC[C@H]1C(N)=O` [^68Ga-LW01142, metal not drawn] ({DOTA}-[X1][dF]HWA[Tle]G[NMeH]L[Thz]-NH2), the tissue uptake at 1 h in “in vivo” (Biodistribution Adrenal Mean) turned out to be 2.07 %ID/g; in “in vivo” (Biodistribution Blood Mean), 6.88 %ID/g; in “in vivo” (Biodistribution Bone Mean) it was 0.47 %ID/g; in the data set “in vivo” (Biodistribution Brain Mean) it was 0.15 %ID/g; in “in vivo” (Biodistribution Fat Mean), 0.32 %ID/g; in the data set “in vivo” (Biodistribution Heart Mean) it was 1.62 %ID/g. The tissue uptake at 1 h was determined as 6.36 %ID/g in the data set “in vivo” (Biodistribution Kidneys Mean); 1.07 %ID/g in “in vivo” (setting [2]); 2.88 %ID/g in “in vivo” (Biodistribution Liver Mean); 4.59 %ID/g in the data set “in vivo” (Biodistribution Lungs Mean); 0.52 %ID/g in the data set “in vivo” (Biodistribution Muscle Mean); 4.4 %ID/g in “in vivo” (Biodistribution Pancreas Mean). For the same compound, the tissue uptake at 1 h in the data set “in vivo” (setting [3]) is 1.7 %ID/g; in the data set “in vivo” (Biodistribution Spleen Mean), 0.88 %ID/g; in the data set “in vivo” (Biodistribution Stomach Mean), 0.98 %ID/g; in the data set “in vivo” (Biodistribution Testes Mean) it was 1.28 %ID/g; in data set [1] (setting [4]) it was 11.4 %ID/g; in data set [1] (setting [5]) it was 0.33 %ID/g.
In the case of `CC(C)C[C@H](NC(=O)[C@H](Cc1c[nH]cn1)NC(=O)CNC(=O)[C@@H](NC(=O)[C@H](C)NC(=O)[C@H](Cc1c[nH]c2ccccc12)NC(=O)[C@H](CCC(N)=O)NC(=O)[C@@H](Cc1ccccc1)NC(=O)CN1CCC(NC(=O)CN2CCN(CC(=O)O)CCN(CC(=O)O)CCN(CC(=O)O)CC2)CC1)C(C)(C)C)C(=O)N1CSC[C@H]1C(N)=O` [^68Ga-LW01108, metal not drawn], the tissue uptake at 1 h came to 1.51 %ID/g in “in vivo” (Biodistribution Adrenal Mean); 0.59 %ID/g in the data set “in vivo” (Biodistribution Blood Mean); 0.15 %ID/g in “in vivo” (Biodistribution Bone Mean); 0.02 %ID/g in “in vivo” (Biodistribution Brain Mean); 0.06 %ID/g in “in vivo” (Biodistribution Fat Mean); 0.18 %ID/g in the data set “in vivo” (Biodistribution Heart Mean). In addition, the tissue uptake at 1 h in “in vivo” (Biodistribution Kidneys Mean) worked out at 2.47 %ID/g; in “in vivo” (setting [2]), 1.31 %ID/g; in “in vivo” (Biodistribution Liver Mean), 0.35 %ID/g; in “in vivo” (Biodistribution Lungs Mean) it was 0.49 %ID/g; in the data set “in vivo” (Biodistribution Muscle Mean), 0.17 %ID/g; in the data set “in vivo” (Biodistribution PC3 tumor Mean), 5.9 %ID/g. The tissue uptake at 1 h in the data set “in vivo” (Biodistribution Pancreas Mean) stood at 9.32 %ID/g; in the data set “in vivo” (setting [3]), 2.29 %ID/g; in the data set “in vivo” (Biodistribution Spleen Mean), 0.4 %ID/g; in “in vivo” (Biodistribution Stomach Mean), 0.89 %ID/g; in “in vivo” (Biodistribution Testes Mean), 0.16 %ID/g; in data set [1] (setting [5]), 0.11 %ID/g.
`CC(C)C[C@@H](CN1CSC[C@H]1C(N)=O)NC(=O)[C@H](Cc1c[nH]cn1)NC(=O)CNC(=O)[C@@H](NC(=O)[C@H](C)NC(=O)[C@H](Cc1c[nH]c2ccccc12)NC(=O)[C@H](CCC(N)=O)NC(=O)[C@@H](Cc1ccccc1)NC(=O)CN1CCC(NC(=O)CN2CCN(CC(=O)O)CCN(CC(=O)O)CCN(CC(=O)O)CC2)CC1)C(C)(C)C` [^68Ga-LW01158, metal not drawn] ({DOTA}-[X1][dF]QWA[Tle]GH-{Leuψ(CH2N)ThzNH2}): the tissue uptake at 1 h in the data set “in vivo” (Biodistribution Adrenal Mean) turned out to be 1.37 %ID/g; in the data set “in vivo” (Biodistribution Blood Mean) it was 1.14 %ID/g; in the data set “in vivo” (Biodistribution Bone Mean) it was 0.13 %ID/g; in the data set “in vivo” (Biodistribution Brain Mean), 0.03 %ID/g; in “in vivo” (Biodistribution Fat Mean) it was 0.07 %ID/g; in “in vivo” (Biodistribution Heart Mean) it was 0.34 %ID/g. Further, the tissue uptake at 1 h in the data set “in vivo” (Biodistribution Kidneys Mean) came to 2.98 %ID/g; in the data set “in vivo” (setting [2]), 1.41 %ID/g; in the data set “in vivo” (Biodistribution Liver Mean), 4.33 %ID/g; in the data set “in vivo” (Biodistribution Lungs Mean) it was 1.19 %ID/g; in the data set “in vivo” (Biodistribution Muscle Mean) it was 0.2 %ID/g; in “in vivo” (setting [3]), 2.46 %ID/g. Besides, the tissue uptake at 1 h in “in vivo” (Biodistribution Spleen Mean) is 0.6 %ID/g; in the data set “in vivo” (Biodistribution Stomach Mean), 1.3 %ID/g; in “in vivo” (Biodistribution Testes Mean) it was 0.24 %ID/g; in data set [1] (setting [4]) it was 11.2 %ID/g; in data set [1] (pancreas, Biodistribution Pancreas Mean), 12 %ID/g; in data set [1] (setting [5]), 0.15 %ID/g.
